Test results from paper PMC12766724, “Synthesis, Anthelmintic Activity, and Mechanism of Action of 5‑Aryl‑1H‑indoles” (Journal of Agricultural and Food Chemistry, 2025).

Experiments:
[1] = test system: C. elegans complex II mutant RP2700; assay: Scoring of developmental rates, L1 exposed 5 days; format: in vivo, Caenorhabditis elegans
Text: (§1) Dead or mostly immobile worms, arrested at the L1 stage, received a score of 1. Populations with severely delayed development were scored as 2. More developmentally advanced, but still obviously delayed worms were given the score of 3. Adult worms that produce a noticeably lower number of progeny received a score of 4. Healthy worms that reproduce normally (i.e., hundreds of eggs and larvae are present) were scored as 5 (see Figure C for representative images). In a typical, correctly prepared experiment, vehicle-treated populations should receive a score of 5, while worms treated with ivermectin (positive control) should receive a score of 1. […]

[2] = test system: C. elegans complex II mutant RP2699; assay: Scoring of developmental rates, L1 exposed 5 days; format: in vivo, Caenorhabditis elegans
Text: as §1

[3] = test system: C. elegans complex II mutant RP2702; assay: Scoring of developmental rates, L1 exposed 5 days; format: in vivo, Caenorhabditis elegans
Text: as §1

C. elegans wild-type N2 = assay: Acute motility of young adults on WMicrotracker ONE; format: in vivo, Caenorhabditis elegans; conditions: 100 μM; 24 h
Method: (§2) The effect of compounds on C. elegans N2 and SDH mutant strains was measured in a similar manner. Briefly, for evaluation of the acute effect of the compounds, age-synchronized young adults of each strain, kept in S complete medium supplemented with E. coli OP50 (3 mg/mL, fresh weight), were transferred onto microtiter plates (96-well, U bottom), and their initial motility was measured for 30 min. […] Afterward, the compounds were washed away, and worms, supplemented with fresh liquid media and food, were distributed onto 96-well plates and allowed to recover. Their activity was measured using WMicrotracker ONE at the indicated time points.
(§3) To experimentally support this promising initial finding, we tested the effect of i-19 against several C. elegans MCII mutant strains. These nematodes carry point mutations that result in amino acid changes in regions of subunits SDHC and SDHD that contribute to the formation of the ubiquinone-binding pocket, thereby influencing its shape and the ability of inhibitors to interact with the protein. […] The compounds were tested in multiple setups. At first, young adults were exposed to higher doses (100, 50, and 10 μM) of the compounds for up to 48 h, and changes in motility were evaluated using WMicrotracker. For both compounds, we observed a less pronounced decrease in movement rates of MCII mutants compared to wild-type worms, in both a dose- and time-dependent manner (Figure ).

[4] = test system: C. elegans MCII mutant RP2700; assay: as above; format: in vivo, Caenorhabditis elegans; conditions: 100 μM; 24 h
Method: as §2, §3

[5] = test system: C. elegans MCII mutant RP2702; assay: as above; format: in vivo, Caenorhabditis elegans; conditions: 100 μM; 24 h
Method: as §2, §3

[6] = test system: C. elegans MCII mutant RP2699; assay: as above; format: in vivo, Caenorhabditis elegans; conditions: 100 μM; 24 h
Method: as §2, §3

wild-type C. elegans = test system: wild-type C. elegans; set-up: method as in previously published data; conditions: earlier larval stages, longer exposure times; ref previously published data; cited from earlier work
[7] = test system: mitochondrial membrane potential of C. elegans young adults; assay: Mitochondrial membrane potential measurement; format: in vivo, Caenorhabditis elegans; conditions: 100 μM; 24 h
Method: After 24 h, the compounds were washed away. Then, the mitochondrial membrane potential was measured using a specialized fluorescent dye (kit MAK147, Sigma-Aldrich). The kit was used according to the manufacturer’s instructions with modified incubation temperature and time (20 °C, 4 h) to account for the fact that living intact worms were used instead of cell cultures. , Dyed worms (approximately 200 per well) were distributed onto a black 96-well plate, and the fluorescence was measured using a Tecan Infinite 200 Pro plate reader.
Determining the mechanism of action of compounds is always challenging; however, the nature of their effect, as well as the structural similarity to compounds with known properties, can provide useful insights. One of our hypotheses was that the compounds might interfere with energy production. We based this assumption on the behavior of compound-treated worms (delayed development, lower fecundity, and relatively rapid decrease in motility rates but not necessarily death). Impaired mitochondrial function would be accompanied by a decrease in mitochondrial membrane potential (MMP).

C. elegans N2 = assay: Scoring of developmental rates, L1 exposed 5 days; format: in vivo, Caenorhabditis elegans
Text: as §1

[8] = test system: C. elegans wild-type and MCII mutants; assay: Recovery of pretreated worms on WMicrotracker ONE; format: in vivo, Caenorhabditis elegans; conditions: 5 or 10 μM for 72 h, then wash-out and recovery
Method: as §2, with “Briefly,” for “The effect of compounds on C. elegans N2 and SDH mutant strains was measured in a similar manner. Briefly,”
C. elegans L1 larvae were exposed to 5 or 10 μM of the compounds for 72 h, after which the compounds were washed away, and the recovery of the nematodes was evaluated using WMicrotracker.

[9] = test system: C. elegans wild-type and MCII mutant strains; assay: Scoring of developmental rates, comparison of strains; format: in vivo, Caenorhabditis elegans; conditions: L1 exposed 5 days
Text: Dead or mostly immobile worms, arrested at the L1 stage, received a score of 1. Populations with severely delayed development were scored as 2. More developmentally advanced, but still obviously delayed worms were given the score of 3. Adult worms that produce a noticeably lower number of progeny received a score of 4. Healthy worms that reproduce normally (i.e., hundreds of eggs and larvae are present) were scored as 5 (see Figure C for representative images). In a typical, correctly prepared experiment, vehicle-treated populations should receive a score of 5, while worms treated with ivermectin (positive control) should receive a score of 1.
We attribute this discrepancy to methodological differences: in previous studies, earlier larval stages, longer exposure times, and different evaluation methods, possibly more sensitive than WMicrotracker, were used.

Q: Which results are given for `O=C(NCCc1ncc(C(F)(F)F)cc1Cl)c1ccccc1C(F)(F)F` [fluopyram, reference compound]?
A: mean score (1-5) ([1]; 0.012 µM): 5; mean score (1-5) ([1]; 0.024 µM): 5; mean score (1-5) ([1]; 0.049 µM): 5; mean score (1-5) ([1]; 0.195 µM): 4.778; mean score (1-5) ([1]; 0.391 µM): 4.444; mean score (1-5) ([1]; 0.781 µM): 3.556; mean score (1-5) ([1]; 1.563 µM): 3.667; mean score (1-5) ([1]; 3.125 µM): 2.444; mean score (1-5) ([1]; 6.25 µM): 1.222; mean score (1-5) ([1]; 12.5 µM): 1; mean score (1-5) ([1]; 25 µM): 1.333; mean score (1-5) ([1]; 50 µM): 1; mean score (1-5) ([1]; 100 µM): 1; mean score (1-5) ([2]; 0.012 µM): 4.667; mean score (1-5) ([2]; 0.024 µM): 4.444; mean score (1-5) ([2]; 0.049 µM): 4; mean score (1-5) ([2]; 0.195 µM): 4.556; mean score (1-5) ([2]; 0.391 µM): 4.444; mean score (1-5) ([2]; 0.781 µM): 3.889; mean score (1-5) ([2]; 1.563 µM): 3.111; mean score (1-5) ([2]; 3.125 µM): 3.333; mean score (1-5) ([2]; 6.25 µM): 1.222; mean score (1-5) ([2]; 12.5 µM): 1; mean score (1-5) ([2]; 25 µM): 1; mean score (1-5) ([2]; 50 µM): 1.222; mean score (1-5) ([2]; 100 µM): 1; mean score (1-5) ([3]; 0.012 µM): 5; mean score (1-5) ([3]; 0.024 µM): 5; mean score (1-5) ([3]; 0.049 µM): 5; mean score (1-5) ([3]; 0.195 µM): 4.889; mean score (1-5) ([3]; 0.391 µM): 4.667; mean score (1-5) ([3]; 0.781 µM): 4.111; mean score (1-5) ([3]; 1.563 µM): 3.556; mean score (1-5) ([3]; 3.125 µM): 3.111; mean score (1-5) ([3]; 6.25 µM): 2.333; mean score (1-5) ([3]; 12.5 µM): 1; mean score (1-5) ([3]; 25 µM): 1; mean score (1-5) ([3]; 50 µM): 1; mean score (1-5) ([3]; 100 µM): 1; decrease of mean activity counts (C. elegans wild-type N2): 60%; decrease of mean activity counts [4]: 16%; decrease of mean activity counts [5]: 28%; decrease of mean activity counts [6]: 53%; concentrations that strongly affect wild-type C. elegans (wild-type C. elegans): below 1 μM; MMP signal lower than in vehicle-treated control animals [7]: ~85%; mean score (1-5) (C. elegans N2; 0.012 µM): 4.667; mean score (1-5) (C. elegans N2; 0.024 µM): 4.333; mean score (1-5) (C. elegans N2; 0.049 µM): 3.667; mean score (1-5) (C. elegans N2; 0.195 µM): 2.778; mean score (1-5) (C. elegans N2; 0.391 µM): 2; mean score (1-5) (C. elegans N2; 0.781 µM): 1; mean score (1-5) (C. elegans N2; 1.563 µM): 1; mean score (1-5) (C. elegans N2; 3.125 µM): 1; mean score (1-5) (C. elegans N2; 6.25 µM): 1; mean score (1-5) (C. elegans N2; 12.5 µM): 1; mean score (1-5) (C. elegans N2; 25 µM): 1; mean score (1-5) (C. elegans N2; 50 µM): 1; mean score (1-5) (C. elegans N2; 100 µM): 1; resistance of MCII mutants compared to wild-type [8]: increased resistance of the MCII mutants; concentrations at which all strains were severely affected [9]: > 6.25 µM
